Results taken from paper PMC9848300, “Discovery of novel enasidenib analogues targeting inhibition of mutant isocitrate dehydrogenase 2 as antileukaemic agents” (Journal of Enzyme Inhibition and Medicinal Chemistry, 2023).
Like-named read-outs stand apart in the source and are kept apart here.

Key:
RPMI-8226 = test: NCI 60 antitumor screening (single dose / five doses); type: cell-based; conditions: Homo sapiens
SR = test: as above; type: cell-based; conditions: Homo sapiens, read-out: Growth inhibition percentage (GI %)
EKVX = test: as above; type: cell-based; conditions: Homo sapiens, read-out: Growth inhibition percentage (GI %)
A549/ATCC = test: NCI 60 antitumor screening (single dose); type: cell-based; conditions: Homo sapiens; A549/ATCC (non-small cell lung cancer), single dose 10 μM; read-out: Growth inhibition percentage (GI %)
Procedure, shortened: (§1)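 NCI-60 one-dose screen. Dose: 10 μM. Lines: 60 human tumour lines, nine tissue types. Output: GI% = 100 − G%.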

CAKI-1 = test: NCI 60 antitumor screening (single dose); type: cell-based; conditions: Homo sapiens; CAKI-1 (renal cancer), single dose 10 μM; read-out: Growth inhibition percentage (GI %)
Procedure, shortened: as §1

HCC-2998 = test: NCI 60 antitumor screening (single dose); type: cell-based; conditions: Homo sapiens; HCC-2998 (colon cancer), single dose 10 μM; read-out: Growth inhibition percentage (GI %)
Procedure, shortened: (§2)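 NCI-60 protocol: single 10 μM dose against each cell line, run in triplicate. Percent growth (G%) of treated cells measured and growth inhibition reported as GI% = 100 − G%; panel mean also given.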

HOP-62 = test: NCI 60 antitumor screening (single dose); type: cell-based; conditions: Homo sapiens; HOP-62 (non-small cell lung cancer), single dose 10 μM; read-out: Growth inhibition percentage (GI %)
Procedure, shortened: as §2

HS 578T = test: NCI 60 antitumor screening (single dose); type: cell-based; conditions: Homo sapiens; HS 578T (breast cancer), single dose 10 μM; read-out: Growth inhibition percentage (GI %)
Procedure, shortened: as §1

KM 12 = test: NCI 60 antitumor screening (single dose); type: cell-based; conditions: Homo sapiens, KM12; KM 12 (colon cancer), single dose 10 μM; read-out: Growth inhibition percentage (GI %)
Procedure, shortened: as §1

M14 = test: NCI 60 antitumor screening (single dose); type: cell-based; conditions: Homo sapiens; M14 (melanoma), single dose 10 μM; read-out: Growth inhibition percentage (GI %)
Procedure, shortened: as §1

NCI-H226 = test: NCI 60 antitumor screening (single dose); type: cell-based; conditions: Homo sapiens; NCI-H226 (non-small cell lung cancer), single dose 10 μM; read-out: Growth inhibition percentage (GI %)
Procedure, shortened: as §1

NCI-H23 = test: NCI 60 antitumor screening (single dose); type: cell-based; conditions: Homo sapiens; NCI-H23 (non-small cell lung cancer), single dose 10 μM; read-out: Growth inhibition percentage (GI %)
Procedure, shortened: as §2

NCI-H322M = test: NCI 60 antitumor screening (single dose); type: cell-based; conditions: Homo sapiens; NCI-H322M (non-small cell lung cancer), single dose 10 μM; read-out: Growth inhibition percentage (GI %)
Procedure, shortened: as §1

NCI-H460 = test: NCI 60 antitumor screening (single dose); type: cell-based; conditions: Homo sapiens; NCI-H460 (non-small cell lung cancer), single dose 10 μM; read-out: Growth inhibition percentage (GI %)
Procedure, shortened: as §2

NCI-H522 = test: NCI 60 antitumor screening (single dose); type: cell-based; conditions: Homo sapiens; NCI-H522 (non-small cell lung cancer), single dose 10 μM; read-out: Growth inhibition percentage (GI %)
Procedure, shortened: as §2

OVCAR-3 = test: NCI 60 antitumor screening (single dose); type: cell-based; conditions: Homo sapiens; OVCAR-3 (ovarian cancer), single dose 10 μM; read-out: Growth inhibition percentage (GI %)
Procedure, shortened: as §1

OVCAR-4 = test: NCI 60 antitumor screening (single dose); type: cell-based; conditions: Homo sapiens; OVCAR-4 (ovarian cancer), single dose 10 μM; read-out: Growth inhibition percentage (GI %)
Procedure, shortened: as §1

OVCAR-5 = test: NCI 60 antitumor screening (single dose); type: cell-based; conditions: Homo sapiens; OVCAR-5 (ovarian cancer), single dose 10 μM; read-out: Growth inhibition percentage (GI %)
Procedure, shortened: as §2

OVCAR-8 = test: NCI 60 antitumor screening (single dose); type: cell-based; conditions: Homo sapiens; OVCAR-8 (ovarian cancer), single dose 10 μM; read-out: Growth inhibition percentage (GI %)
Procedure, shortened: as §1

PC-3 = test: NCI 60 antitumor screening (single dose); type: cell-based; conditions: Homo sapiens; PC-3 (prostate cancer), single dose 10 μM; read-out: Growth inhibition percentage (GI %)
Procedure, shortened: as §1

SK-OV-3 = test: NCI 60 antitumor screening (single dose); type: cell-based; conditions: Homo sapiens; SK-OV-3 (ovarian cancer), single dose 10 μM; read-out: Growth inhibition percentage (GI %)
Procedure, shortened: as §2

SNB-19 = test: NCI 60 antitumor screening (single dose); type: cell-based; conditions: Homo sapiens; SNB-19 (CNS cancer), single dose 10 μM; read-out: Growth inhibition percentage (GI %)
Procedure, shortened: as §1

TK-10 = test: NCI 60 antitumor screening (single dose); type: cell-based; conditions: Homo sapiens; TK-10 (renal cancer), single dose 10 μM; read-out: Growth inhibition percentage (GI %)
Procedure, shortened: as §1

U251 = test: NCI 60 antitumor screening (single dose); type: cell-based; conditions: Homo sapiens, U-251; U251 (CNS cancer), single dose 10 μM; read-out: Growth inhibition percentage (GI %)
Procedure, shortened: as §2

SW-620 = test: NCI 60 antitumor screening (single dose / five doses); type: cell-based, human; conditions: Homo sapiens
MALME-3M = test: as above; type: cell-based; conditions: Homo sapiens, read-out: Growth inhibition percentage (GI %)
NCI/ADR-RES = test: as above; type: cell-based; conditions: Homo sapiens, read-out: Growth inhibition percentage (GI %)

SMILES	inhibition at 10 µM (A549/ATCC) [%]	inhibition at 10 µM (CAKI-1) [%]	inhibition at 10 µM (HCC-2998) [%]	inhibition at 10 µM (HOP-62) [%]	inhibition at 10 µM (HS 578T) [%]	inhibition at 10 µM (KM 12) [%]	inhibition at 10 µM (M14) [%]	inhibition at 10 µM (NCI-H226) [%]	inhibition at 10 µM (NCI-H23) [%]	inhibition at 10 µM (NCI-H322M) [%]	inhibition at 10 µM (NCI-H460) [%]	inhibition at 10 µM (NCI-H522) [%]	inhibition at 10 µM (OVCAR-3) [%]	inhibition at 10 µM (OVCAR-4) [%]	inhibition at 10 µM (OVCAR-5) [%]	inhibition at 10 µM (OVCAR-8) [%]	inhibition at 10 µM (PC-3) [%]	inhibition at 10 µM (SK-OV-3) [%]	inhibition at 10 µM (SNB-19) [%]	inhibition at 10 µM (TK-10) [%]	also measured
Clc1cccc(/C=N/Nc2nc(N/N=C/c3cccc(Cl)c3)nc(N3CCCCC3)n2)c1 [compound 7d, 2,4-Bis[(E)-2-[(3-Chlorophenyl)methylidene]hydrazin-1-yl]-6-(piperidin-1-yl)-1,3,5-triazine]	13.7	7.63	-8.18	-4.1	-4.65	8.95	4.75	18	2.24	-1.33	3.48	11.7	8.59	9.83	-10.4	10.8	24	-9.25	1.37	-6.48	inhibition at 10 µM (RPMI-8226; RPMI-8226 (leukaemia), single dose 10 μM, read-out: Growth inhibition percentage (GI %)): 27.6%; inhibition at 10 µM (SR; SR (leukaemia), single dose 10 μM): 25.4%; inhibition at 10 µM (EKVX; EKVX (non-small cell lung cancer), single dose 10 μM): 21.6%; inhibition at 10 µM (U251): 8.35%; inhibition at 10 µM (SW-620; SW-620 (colon cancer), single dose 10 μM, read-out: Growth inhibition percentage (GI %)): -2.95%; inhibition at 10 µM (MALME-3M; MALME-3M (melanoma), single dose 10 μM): -9.06%; inhibition at 10 µM (NCI/ADR-RES; NCI/ADR-RES (ovarian cancer), single dose 10 μM): 4.8%
O=[N+]([O-])c1cccc(/C=N/Nc2nc(N/N=C/c3cccc([N+](=O)[O-])c3)nc(N3CCCCC3)n2)c1 [compound 7f, 2,4-Bis[(E)-2-[(3-Nitrophenyl)methylidene]hydrazin-1-yl]-6-(piperidin-1-yl)-1,3,5-triazine]	39.3	27.6	5.6	41.5	20.8	35.2	41.2	42.6	37.8	13.8	31.3	58.1	44.4	32.3	-13	48.9	51.4	-14.3	11.5	-9.28	inhibition at 10 µM (RPMI-8226; RPMI-8226, read-out: Growth inhibition percentage (GI %)): 69.3%; inhibition at 10 µM (SR; SR): 53.3%; inhibition at 10 µM (EKVX; EKVX): 34.9%; inhibition at 10 µM (U251): 28.6%; inhibition at 10 µM (SW-620; SW-620, read-out: Growth inhibition percentage (GI %)): 16.5%; inhibition at 10 µM (MALME-3M; Malme-3M): 7.94%; inhibition at 10 µM (NCI/ADR-RES; NCI/ADR-RES): 32.8%
